According to patent US12139473B2, “Substituted-N-heteroaryl compounds and uses thereof” (Bionomics Limited, priority 2019, dated 2024):

Target: T1, hKv3.1 (Homo sapiens, UniProt P48547)
T1 construct: expressed in transfected cells
T1 sequence (P48547 1-511): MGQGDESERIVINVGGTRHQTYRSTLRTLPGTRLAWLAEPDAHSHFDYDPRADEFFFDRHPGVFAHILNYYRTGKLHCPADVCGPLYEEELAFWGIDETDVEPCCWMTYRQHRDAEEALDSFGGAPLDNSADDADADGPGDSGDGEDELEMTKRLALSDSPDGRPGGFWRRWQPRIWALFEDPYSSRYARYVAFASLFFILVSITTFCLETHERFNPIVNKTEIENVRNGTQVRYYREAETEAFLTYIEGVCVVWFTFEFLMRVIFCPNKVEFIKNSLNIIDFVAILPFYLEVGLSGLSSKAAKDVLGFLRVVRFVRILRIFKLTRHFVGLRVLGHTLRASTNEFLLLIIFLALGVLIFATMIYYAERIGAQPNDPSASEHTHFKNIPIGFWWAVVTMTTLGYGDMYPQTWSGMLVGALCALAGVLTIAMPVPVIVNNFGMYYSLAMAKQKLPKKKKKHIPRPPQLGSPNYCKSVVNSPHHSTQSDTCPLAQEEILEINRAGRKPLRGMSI
Assay: Automated patch clamp electrophysiology (Patchliner), CHO/Kv3.1 cells
Type: cell-based
Conditions: 10 μM compound, hKv3.1 in CHO-K1, whole-cell; for Kv3.1 Activity at 10 μM Potentiation (%): peak current at voltage step of −10 mV vs vehicle (0.33% DMSO); for Kv3.1 Activity at 10 μM Voltage Shift (mV): voltage shift of the IV curve at V1/2
Protocol: hKv3.1, hKv3.2, hKv3.3, and hKv3.4 were stably expressed in CHO-K1 (Chinese hamster ovary) cells and kept under constant antibiotic selection. For in vitro assays, cells were maintained in appropriate growth medium at 37° C. and 5% CO2 in a humidified incubator.
hKv3.X expressing cells were plated in T-25 flasks for 3-4 days at 37° C. (no selection antibiotic) prior to use and grown to 80% confluence. Cells were washed twice with PBS (calcium and magnesium free) and detached with a 5-minute treatment at 37° C. with 2-3 mls of Accutase®. Cells were collected, and flask was washed in CHO-SFM II media (Life Technologies Gibco), centrifuged for 2 minutes at ˜110×g and resuspended to obtain a single cell suspension of ˜2-3×10^6 cells/ml.
The intracellular solution contained the following (in mM): KCl 50, NaCl 10, KF 60, EGTA 20, HEPES 10, adjusted to pH 7.2 with KOH and an osmolarity of 285 mOsmol. Seal enhancer was purchased from Nanion (80 mM NaCl, 3 mM KCl, 10 mM MgCl2, 35 mM CaCl2), 10 mM HEPES, pH7.4, 298 mOsmol. The external solution contained (in mM): NaCl 140, KCl 4, CaCl2) 2, MgCl2 1, HEPES 10, Glucose 5, adjusted to pH7.4 and an osmolarity of 298 mOsmol.
All compounds were initially tested at 10 uM at a final DMSO concentration of 0.33%. Compounds were dissolved in dimethylsulfoxide (DMSO) at a stock concentration of 30 mM. The compound was further diluted 1:10 to give a stock concentration of 3 mM in DMSO. The final assay solution was diluted 1:300 in External solution to give a final concentration of 10 uM. For the DMSO Control Buffer 30 uL of DMSO was added to 10 mL buffer.
All electrophysiological recordings were performed at ambient temperature (21-23° C.) using automated patch clamp (Patchliner, Nanion Technologies GmbH) in the whole-cell configuration.
Cell membrane potentials were held at −80 mV, and currents were evoked by voltage steps (1000 ms duration) from −60 to +60 mV in 10 mV increments. This was performed first with vehicle (0.33% DMSO) and then with 10 uM compound, after a 3-minute incubation period. Data was taken from 4 cells per assay.
The recordings were analysed and selected using peak current amplitude (>100 pA at the −10 mV voltage step) in the absence of compound to eliminate unsuitable cells from analysis. Peak current amplitude was measured and recorded for each voltage step and data was normalised to the maximum current at +60 mV. The normalised Kv3.x currents following addition of the compound were then compared with the currents recorded prior to compound addition (vehicle control). Positive modulation was determined as % potentiation at the voltage step of −10 mV=[current (cmpd)/current (veh)]*100−100. % potentiation≥50% was considered acceptable. In addition, voltage shift of the IV curve at V1/2 was measured. V1/2 of ≥−5 mV was also considered acceptable. IV curves were plotted in GraphPad Prism (software version 6.0) and fitted with a Boltzmann equation, where V1/2 is the voltage at half-maximal activation.

| SMILES | Kv3.1 Activity at 10 μM Potentiation (%) | Kv3.1 Activity at 10 μM Voltage Shift (mV) |
| --- | --- | --- |
| CC1(C)NC(=O)N(c2cc(Oc3cccc4c3CCC4)ncn2)C1=O [Example 32, 3-(6-indan-4-yloxypyrimidin-4-yl)-5,5-dimethyl-imidazolidine-2,4-dione] | 13 | −1.3 mV |
| COc1c(C)cc(Oc2cc(N3C(=O)NC(C)(C)C3=O)ncn2)cc1C [Example 35, 3-[6-(4-methoxy-3,5-dimethyl-phenoxy)pyrimidin-4-yl]-5,5-dimethyl-imidazolidine-2,4-dione] | −10 | −0.4 mV |
| Cc1ccc(Oc2cc(N3C(=O)NC(C)(C)C3=O)ncn2)cc1OCC(C)C [Example 39, 3-[6-(3-isobutoxy-4-methyl-phenoxy)pyrimidin-4-yl]-5,5-dimethyl-imidazolidine-2,4-dione] | 13 | −2.1 mV |
| COc1cccc(Oc2cc(N3C(=O)NC(C)(C)C3=O)ncn2)c1C(C)C [Example 40, 3-[6-(2-isopropyl-3-methoxy-phenoxy)pyrimidin-4-yl]-5,5-dimethyl-imidazolidine-2,4-dione] | 23 | −2.1 mV |
| CC1(C)NC(=O)N(c2cc(Oc3ccc4c(c3)OC(F)(F)O4)ncn2)C1=O [Example 45, 3-[6-[(2,2-difluoro-1,3-benzodioxol-5-yl)oxy]pyrimidin-4-yl]-5,5-dimethyl-imidazolidine-2,4-dione] | 19 | −1.7 mV |
| CC[C@@]1(C)NC(=O)N(c2nccc(Oc3ccc(C)c(OC)c3)n2)C1=O [Example 48, (5R)-5-ethyl-3-[4-(3-methoxy-4-methyl-phenoxy)pyrimidin-2-yl]-5-methyl-imidazolidine-2,4-dione] | 32 | −2.1 mV |
| COc1cc(Oc2cncc(N3C(=O)NC(C)(C)C3=O)n2)ccc1F [Example 54, 3-[6-(4-fluoro-3-methoxy-phenoxy)pyrazin-2-yl]-5,5-dimethyl-imidazolidine-2,4-dione] | 15 | −0.5 mV |
| CC[C@H]1NC(=O)N(c2nccc(Oc3ccc(C#N)cc3C(C)(C)C)n2)C1=O [Example 57, 3-tert-butyl-4-[2-[(4R)-4-ethyl-2,5-dioxo-imidazolidin-1-yl]pyrimidin-4-yl]oxy-benzonitrile] | −7 | +0.8 mV |
| CC[C@H]1NC(=O)N(c2ccnc(Oc3ccc(C)c(OC)c3)n2)C1=O [Example 59, (5R)-5-ethyl-3-[2-(3-methoxy-4-methyl-phenoxy)pyrimidin-4-yl]imidazolidine-2,4-dione] | 22 | −1.1 mV |
| COc1cc(Oc2ccnc(N3C(=O)NC(C)(C)C3=O)n2)ccc1C [Example 60, 3-[4-(3-methoxy-4-methyl-phenox)pyrimidin-2-yl]-5,5-dimethyl-imidazolidine-2,4-dione] | 22 | −2.0 mV |
| CC(C)c1cc(Oc2ccnc(N3C(=O)NC(C)(C)C3=O)n2)ccc1C#N [Example 61, 4-[2-(4,4-dimethyl-2,5-dioxo-imidazolidin-1-yl)pyrimidin-4-yl]oxy-2-isopropyl-benzonitrile] | 21 | −1.6 mV |
| CC[C@@]1(C)NC(=O)N(c2ccnc(Oc3ccc(C)c(OC)c3)n2)C1=O [Example 62, (5R)-5-ethyl-3-[2-(3-methoxy-4-methyl-phenoxy)pyrimidin-4-yl]-5-methyl-imidazolidine-2,4-dione] | 20 | −3.1 mV |
| COc1cc(Oc2nccc(N3C(=O)NC(C)(C)C3=O)n2)ccc1F [Example 64, 3-[2-(3-methoxy-4-fluoro-phenoxy)pyrimidin-4-yl]-5,5-dimethyl-imidazolidine-2,4-dione] | 34 | −1.8 mV |
| COc1cc(Oc2cnnc(N3C(=O)NC(C)(C)C3=O)c2)ccc1C [Example 77, 3-[5-(3-methoxy-4-methyl-phenoxy)pyridazin-3-yl]-5,5-dimethyl-imidazolidine-2,4-dione] | 26 | −2.4 mV |

Further lines, results first:

| Kv3.1 Activity at 10 μM Potentiation (%) | Kv3.1 Activity at 10 μM Voltage Shift (mV) | SMILES |
| --- | --- | --- |
| 33 | −1.6 mV | CC1(C)NC(=O)N(c2cc(Oc3ccc4c(c3)OCCC4)ncn2)C1=O [Example 33, 3-(6-chroman-7-yloxypyrimidin-4-yl)-5,5-dimethyl-imidazolidine-2,4-dione] |
| 17 | −3.3 mV | CCOc1cc(Oc2cc(N3C(=O)NC(C)(C)C3=O)ncn2)ccc1C [Example 36, 3-[6-(3-ethoxy-4-methyl-phenoxy)pyrimidin-4-yl]-5,5-dimethyl-imidazolidine-2,4-dione] |
| 16 | −1.0 mV | Cc1ccc(Oc2cc(N3C(=O)NC(C)(C)C3=O)ncn2)cc1OCC1CC1 [Example 37, 3-[6-[3-(cyclopropylmethoxy)-4-methyl-phenoxy]pyrimidin-4-yl]-5,5-dimethyl-imidazolidine-2,4-dione] |
| 18 | −2.0 mV | Cc1ccc(Oc2cc(N3C(=O)NC(C)(C)C3=O)ncn2)cc1OC(C)C [Example 38, 3-[6-(3-isopropoxy-4-methyl-phenoxy)pyrimidin-4-yl]-5,5-dimethyl-imidazolidine-2,4-dione] |
| 11 | +2.0 mV | COc1cc(Oc2cc(N3C(=O)NC(C)(C)C3=O)ncn2)ccc1C(F)(F)F [Example 42, 3-[6-[3-methoxy-4-(trifluoromethyl)phenoxy]pyrimidin-4-yl]-5,5-dimethyl-imidazolidine-2,4-dione] |
| 33 | −2.9 mV | Cc1ccc(Oc2cc(N3C(=O)NC(C)(C)C3=O)ncn2)cc1OC(F)(F)F [Example 44, 3-[6-[4-methyl-3-(trifluoromethoxy)phenoxy]pyrimidin-4-yl]-5,5-dimethyl-imidazolidine-2,4-dione] |
| 16 | −3.9 mV | CC[C@H]1NC(=O)N(c2cc(Oc3ccc(C)c(OC)c3)ncn2)C1=O [Example 55, (5R)-5-ethyl-3-[6-(3-methoxy-4-methyl-phenoxy)pyrimidin-4-yl]imidazolidine-2,4-dione] |
